Laboratory results reported in patent US20060069132A1, “Azolecarboxamide herbicides” (priority 2004, published 2006).

Experiments:
morningglory [1] = experiment: Test A pre-/postemergence herbicide test; type: in vivo, Ipomoea spp.; settings: for Plant response rating, Morningglory: Postemergence; for Morningglory plant response rating: Preemergence
Procedure, shortened: (§1)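 Visual injury scores on a 0–100 scale (100 = complete control) taken about ten days post-treatment in greenhouse against untreated controls; dash means no result. Treatments: preemergence soil spray and postemergence spray to runoff on one- to two-leaf plants 2 to 10 cm tall, surfactant-containing formulation.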

redroot pigweed = experiment: Test A pre-/postemergence herbicide test; type: in vivo, Amaranthus retroflexus; settings: for Plant response rating, Pigweed: Postemergence; for Pigweed plant response rating: Preemergence
Procedure, shortened: as §1

velvetleaf = experiment: Test A pre-/postemergence herbicide test; type: in vivo, Abutilon theophrasti; settings: for Velvetleaf plant response rating: Preemergence
Procedure, shortened: as §1

bermudagrass = experiment: Test C pre-/postemergence herbicide test; type: in vivo, Cynodon dactylon
Procedure, shortened: (§2)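 Visual ratings on a 0–100 scale (100 = complete control) made versus untreated controls after 12 to 14 greenhouse days. Test chemicals, formulated in surfactant-containing non-phytotoxic solvent, applied preemergence to planted seeds or postemergence to 1- to 4-leaf plants (2 to 18 cm).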

giant foxtail = experiment: Test C pre-/postemergence herbicide test; type: in vivo, Setaria faberi; settings: for Foxtail, Giant plant response rating: 500 g ai/ha
Procedure, shortened: as §2

lambsquarters = experiment: Test C pre-/postemergence herbicide test; type: in vivo, Chenopodium album; settings: for Lambsquarters plant response rating: 500 g ai/ha
Procedure, shortened: as §2

morningglory [2] = experiment: Test C pre-/postemergence herbicide test; type: in vivo, Ipomoea coccinea; design: key to Plant response rating, Morningglory: 0 = no effect, 100 = complete control; settings: for Morningglory plant response rating: 500 g ai/ha
Procedure, shortened: as §2

eastern black nightshade = experiment: Test C pre-/postemergence herbicide test; type: in vivo, Solanum ptycanthum; settings: for Plant response rating, Nightshade: visual, 12 to 14 days
Procedure, shortened: as §2

yellow nutsedge = experiment: Test C pre-/postemergence herbicide test; type: in vivo, Cyperus esculentus; settings: for Nutsedge, Yellow plant response rating: 500 g ai/ha
Procedure, shortened: as §2

common ragweed = experiment: Test C pre-/postemergence herbicide test; type: in vivo, Ambrosia elatior; design: key to Plant response rating, Ragweed: 0 = no effect, 100 = complete control; settings: for Ragweed plant response rating: 500 g ai/ha
Procedure, shortened: as §2

chickweed = experiment: Test C postemergence herbicide test; type: in vivo, Stellaria media
Procedure, shortened: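 Weeds and wheat were sprayed after emergence, at a height of 2 to 18 cm (1–4 leaves), and paddy barnyardgrass was flooded and treated at two leaves. Assessment took place 12–14 days later in the greenhouse on a 0-to-100 visual control scale. A dash means no result was obtained.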

[3] = 500 g ai/ha, 0 to 100 scale, 0 no effect, 100 complete control
[4] = 2000 g ai/ha, 0 to 100 scale, 0 no effect, 100 complete control
[5] = 500 g ai/ha, visual rating, 0 to 100 scale (0 no effect, 100 complete control)
[6] = 125 g ai/ha, scale 0 (no effect) to 100 (complete control), visual, 12 to 14 days, preemergence
[7] = 250 g ai/ha, scale 0 to 100 (0 no effect, 100 complete control), visual, 12 to 14 days, preemergence
[8] = Postemergence, 125 g ai/ha, scale 0 to 100, 0 no effect, 100 complete control
[9] = Preemergence, 500 g ai/ha, scale 0 to 100, 0 no effect, 100 complete control
[10] = Postemergence, 250 g ai/ha, scale 0 to 100, 0 no effect, 100 complete control
[11] = Preemergence, scale 0 to 100, 0 no effect, 100 complete control
[12] = postemergence, 62 g ai/ha, scale 0 to 100

With `C=CCNC(=O)c1cccc(NC(=O)c2cc(C(C)(C)C)nn2CC)c1` [Compound 46] the “Plant response rating, Morningglory” value (morningglory [1]; [3]) was 40, the “Plant response rating, Morningglory” value (morningglory [1]; [4]) was 65 and the “Morningglory plant response rating” value (morningglory [1]; [5]) was 40. For the same compound, the “Morningglory plant response rating” value (morningglory [1]; [4]) was 65, the “Plant response rating, Pigweed” value (redroot pigweed; [3]) was 100 and the “Plant response rating, Pigweed” value (redroot pigweed; [4]) was 100. The “Pigweed plant response rating” value (redroot pigweed; [5]) was 100, the “Pigweed plant response rating” value (redroot pigweed; [4]) was 100 and the “Plant response rating, Velvetleaf” value (velvetleaf; Postemergence, 2000 g ai/ha, 0 to 100 scale, 0 no effect, 100 complete control) was 75. The “Velvetleaf plant response rating” value (velvetleaf; [5]) was 30, the “Velvetleaf plant response rating” value (velvetleaf; [4]) was 85 and the “Plant response rating (0 = no effect, 100 = complete control), Bermudagrass” value (bermudagrass; 62 g ai/ha, preemergence) was 90. The “Plant response rating, Bermudagrass” value (bermudagrass; [6]) was 100, the “Plant response rating, Bermudagrass” value (bermudagrass; [7]) was 100 and the “Plant response rating, Bermudagrass” value (bermudagrass; [8]) was 100. For the same compound, the “Bermudagrass plant response rating” value (bermudagrass; [9]) was 100, the “Plant response rating (0 = no effect, 100 = complete control), Foxtail, Giant” value (giant foxtail; 62 g ai/ha, preemergence) was 10 and the “Plant response rating, Foxtail, Giant” value (giant foxtail; [6]) was 60. For the same compound, the “Plant response rating, Foxtail, Giant” value (giant foxtail; [7]) was 100, the “Foxtail, Giant plant response rating” value (giant foxtail; Postemergence, scale 0 to 100) was 70 and the “Plant response rating, Foxtail, Giant” value (giant foxtail; [8]) was 60. For the same compound, the “Plant response rating, Foxtail, Giant” value (giant foxtail; [10]) was 60, the “Foxtail, Giant plant response rating” value (giant foxtail; [11]) was 100 and the “Plant response rating, Foxtail, Giant” value (giant foxtail; [12]) was 40. The “Plant response rating (0 = no effect, 100 = complete control), Lambsquarters” value (lambsquarters; 62 g ai/ha, preemergence) was 100, the “Plant response rating, Lambsquarters” value (lambsquarters; [6]) was 100 and the “Plant response rating, Lambsquarters” value (lambsquarters; [7]) was 100. The “Lambsquarters plant response rating” value (lambsquarters; Postemergence, scale 0 to 100) was 100, the “Plant response rating, Lambsquarters” value (lambsquarters; [10]) was 100 and the “Lambsquarters plant response rating” value (lambsquarters; [11]) was 100. The “Plant response rating, Lambsquarters” value (lambsquarters; [12]) was 80, the “Plant response rating (0 = no effect, 100 = complete control), Morningglory” value (morningglory [2]; 62 g ai/ha, preemergence) was 0 and the “Plant response rating, Morningglory” value (morningglory [2]; [6]) was 0. For the same compound, the “Plant response rating, Morningglory” value (morningglory [2]; [7]) was 90, the “Morningglory plant response rating” value (morningglory [2]; Postemergence, scale 0 to 100) was 80 and the “Plant response rating, Morningglory” value (morningglory [2]; [10]) was 60. For the same compound, the “Morningglory plant response rating” value (morningglory [2]; [11]) was 90, the “Plant response rating, Morningglory” value (morningglory [2]; [12]) was 60 and the “Plant response rating (0 = no effect, 100 = complete control), Nightshade” value (eastern black nightshade; 62 g ai/ha, preemergence) was 90. The “Plant response rating, Nightshade” value (eastern black nightshade; 125 g ai/ha, scale 0 (no effect) to 100 (complete control), preemergence) was 100, the “Plant response rating, Nightshade” value (eastern black nightshade; 250 g ai/ha, scale 0 to 100 (0 no effect, 100 complete control), preemergence) was 100 and the “Nightshade plant response rating” value (eastern black nightshade; [9]) was 100. For the same compound, the “Plant response rating (0 = no effect, 100 = complete control), Nutsedge, Yellow” value (yellow nutsedge; 62 g ai/ha, preemergence) was 0, the “Plant response rating, Nutsedge, Yellow” value (yellow nutsedge; [6]) was 0 and the “Plant response rating, Nutsedge, Yellow” value (yellow nutsedge; [7]) was 0. The “Nutsedge, Yellow plant response rating” value (yellow nutsedge; Postemergence, scale 0 to 100) was 40, the “Plant response rating, Nutsedge, Yellow” value (yellow nutsedge; [10]) was 20 and the “Nutsedge, Yellow plant response rating” value (yellow nutsedge; [11]) was 0. For the same compound, the “Plant response rating, Nutsedge, Yellow” value (yellow nutsedge; [12]) was 20, the “Plant response rating (0 = no effect, 100 = complete control), Ragweed” value (common ragweed; 62 g ai/ha, preemergence) was 10 and the “Plant response rating, Ragweed” value (common ragweed; [6]) was 40. For the same compound, the “Plant response rating, Ragweed” value (common ragweed; [7]) was 90, the “Ragweed plant response rating” value (common ragweed; Postemergence, scale 0 to 100) was 80 and the “Plant response rating, Ragweed” value (common ragweed; [10]) was 80. The “Ragweed plant response rating” value (common ragweed; [11]) was 90, the “Plant response rating, Ragweed” value (common ragweed; [12]) was 70 and the “Chickweed plant response rating” value (chickweed; Postemergence, 500 g ai/ha, scale 0 to 100) was 100. The “Plant response rating, Chickweed” value (chickweed; [8]) was 70, the “Plant response rating, Chickweed” value (chickweed; [10]) was 80 and the “Plant response rating, Chickweed” value (chickweed; [12]) was 70.
